pIC50: −log10 of the molar value.
How the values were obtained:
[1] = biological target: T1, 5-HT1A serotonin receptor (Rattus norvegicus, UniProt P19327); assay: displacement of [3H] 8-OH DPAT from the 5-HT1A serotonin receptor (procedure of Hall et al.); assay type: binding; settings: for pIC50: [3H] 8-OH DPAT displacement, read-out: Affinity for 5HT1A Receptor IC50; for inhibition at 0.1 µM / inhibition at 1 µM: read-out: Affinity for 5HT1A Receptor % Inhibition
T1 sequence (P19327 1-422): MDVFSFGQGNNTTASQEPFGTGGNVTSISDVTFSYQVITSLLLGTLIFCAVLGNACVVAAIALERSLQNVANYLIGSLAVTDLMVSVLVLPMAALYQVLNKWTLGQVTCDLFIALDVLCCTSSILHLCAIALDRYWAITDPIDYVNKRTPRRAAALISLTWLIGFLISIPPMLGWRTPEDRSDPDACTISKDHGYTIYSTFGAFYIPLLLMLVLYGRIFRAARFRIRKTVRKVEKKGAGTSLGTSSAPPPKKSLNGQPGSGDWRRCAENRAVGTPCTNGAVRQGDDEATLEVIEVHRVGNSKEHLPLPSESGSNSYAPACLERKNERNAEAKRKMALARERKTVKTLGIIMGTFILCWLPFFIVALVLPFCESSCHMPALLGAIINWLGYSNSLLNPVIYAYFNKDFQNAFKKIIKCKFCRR
From the text: 8-OH DPAT (dipropylaminotetralin) from the 5-HT1A serotonin receptor by the procedure of Hall et al., J. Neurochem.

[2] = biological target: D2 dopamine receptor (Rattus norvegicus, UniProt P61169); assay: D2 dopamine receptor binding study with 3H-spiroperiodol in homogenized limbic brain tissue; settings: read-out: Affinity for D2 Receptor % Inhibition
Experimental: The D2 dopamine receptor binding study was in accordance with a modification of the procedure of Field et al., Brain Res., 136, pp. 578-584 (1977) and Yamamura et al., eds., Neurotransmitter Receptor Binding, Raven Press, N.Y. (1978), wherein homogenized limbic brain tissue is incubated with ^3H-spiroperiodol and various concentrations of test compounds, filtered and washed and shaken with Hydrofluoro scintillation cocktail (National Diagnostics) and counted in a Packard 460CD scintillation counter.

D2 dopamine receptor, sequence (P61169 whole entry): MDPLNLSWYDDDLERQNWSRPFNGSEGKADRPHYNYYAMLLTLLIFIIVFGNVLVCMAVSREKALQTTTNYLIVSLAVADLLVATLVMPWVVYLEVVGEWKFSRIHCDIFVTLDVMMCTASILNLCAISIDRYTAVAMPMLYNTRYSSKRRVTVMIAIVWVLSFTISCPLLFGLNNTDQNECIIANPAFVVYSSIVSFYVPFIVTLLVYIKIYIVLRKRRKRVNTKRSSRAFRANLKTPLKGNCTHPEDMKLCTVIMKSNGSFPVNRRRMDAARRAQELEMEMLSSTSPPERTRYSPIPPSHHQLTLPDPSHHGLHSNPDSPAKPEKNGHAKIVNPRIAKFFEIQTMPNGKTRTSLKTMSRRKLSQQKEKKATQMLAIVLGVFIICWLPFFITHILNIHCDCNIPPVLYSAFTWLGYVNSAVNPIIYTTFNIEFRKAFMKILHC

| pIC50 [1] | inhibition at 0.1 µM [1] | inhibition at 1 µM [1] | inhibition at 10 µM ([2]; at 10 µM) | inhibition at 0.1 µM ([2]; at 0.1 µM) | inhibition at 1 µM ([2]; at 1 µM) | SMILES |
| --- | --- | --- | --- | --- | --- | --- |
| 6.54 | 18% | 72% |  |  |  | COc1ccccc1N1CCN(CCC(=O)NC(C)(C)C)CC1 [Example 6, N-(1,1-Dimethylethyl)-3-[4-(2-methoxyphenyl)-1-piperazinyl]-propanamide] |
| 7.94 | 90% | 100% | 38% |  |  | COc1ccccc1N1CCN(CC(Cc2ccccc2)C(=O)NC(C)(C)C)CC1 (racemic) [Example 3, N-Tertiary-butyl 2-[[4-(2-methoxyphenyl)piperazinyl]methyl]-3-phenyl-propanamide] |
| 7.60 | 69% | 86% |  | 8% | 32% | COc1ccccc1N1CCN(CC(C(=O)NC(C)(C)C)c2ccccc2)CC1 (racemic) [Example 2, N-Tertiary-butyl 3-[4-(2-methoxyphenyl)piperazinyl]-2-phenyl-propanamide] |
|  | 56% |  |  |  |  | COc1ccccc1N1CCN(CCC(=O)NC2(C)CCCCC2)CC1 [Example 4, 4-(2-Methoxyphenyl)-N-(1-methylcyclohexyl)-1-piperazinepropanamide] |
